Experimental data taken from US8497287B2, “Aminotetralin compounds as mu opioid receptor antagonists” (priority 2007, dated 2013).

Assays:
[1] = tested on: loperamide-induced delayed gastric emptying; experiment: Rat gastric emptying assay, reversal of loperamide-induced delayed gastric emptying; format: in vivo; conditions: administered orally, loperamide 1 mg/kg s.c., gastric emptying model
human mu opioid receptor [2] = target: T1, human mu opioid receptor (Homo sapiens, UniProt P35372); experiment: biochemical; conditions: read-out: intrinsic activity (IA), expressed as a percentage
T1 construct: host or cells: CHO-K1 cells, membranes

human mu opioid receptor [3] = target: T1, human mu opioid receptor; experiment: biochemical; format: binding

T1 sequence (P35372 whole entry): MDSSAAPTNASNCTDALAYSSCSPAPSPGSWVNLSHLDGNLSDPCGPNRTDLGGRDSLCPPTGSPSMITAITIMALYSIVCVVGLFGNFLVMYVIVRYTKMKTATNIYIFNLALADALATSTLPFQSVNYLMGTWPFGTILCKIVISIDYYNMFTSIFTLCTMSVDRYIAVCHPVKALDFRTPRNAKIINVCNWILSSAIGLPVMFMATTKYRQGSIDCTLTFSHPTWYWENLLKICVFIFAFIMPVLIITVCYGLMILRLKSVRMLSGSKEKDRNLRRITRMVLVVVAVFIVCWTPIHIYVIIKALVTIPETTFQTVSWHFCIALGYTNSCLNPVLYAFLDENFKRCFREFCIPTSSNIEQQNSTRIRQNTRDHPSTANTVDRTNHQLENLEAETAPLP

## COC1Cc2ccc(C(N)=O)cc2C(C)(C)C1NCCC(=O)N1CCCCC1 (racemic) [Example 1, trans-6-Methoxy-8,8-dimethyl-7-(3-oxo-3-piperidin-1-yl-propylamino)-5,6,7,8-tetrahydro-naphthalene-2-carboxylic acid amide]
[1]
  ID50, dose required for 50% reversal of the effects of loperamide: 0.48 mg/kg
Human mu opioid receptor [2]
  Emax: 0%
Human mu opioid receptor [3]
  Ki: 0.1 nM

## CCC1(CC)c2cc(O)ccc2C[C@@H](OC)[C@@H]1NCC(Cc1ccccc1)C(=O)O (relative stereo) [Example 11, 2-Benzyl-3-(trans-1,1-diethyl-7-hydroxy-3-methoxy-1,2,3,4-tetrahydro-naphthalen-2-ylamino)-propionic acid]
Human mu opioid receptor [2]
  Emax: -6%
Human mu opioid receptor [3]
  Ki: 1.26 nM
